pIC50: −log10 of the molar value.
Tests used:
[1] = Determination of hydrolytic stability (5:1 dioxane/buffer, HPLC); type: physicochemical; settings: 5:1 dioxane/buffer solution, test ended after 24 or 192 hours, read-out: Hydrolytic stability t1/2
Description: The ester to be analyzed was dissolved in each case in a 5:1 mixture of dioxane and buffer solution (pH 1.2, pH 5.0 or pH 8.0) at 23° C. At different times, the content of ester and hydrolysis products (8S,11R,13S,14S,1 7S)-17-hydroxy-11-[4-((R)-1-hydroxyethyl)phenyl]-13-methyl-17-pentafluoroethyl-1,2,6,7,8,11,12,13,14,15,16,17-dodecahydrocyclopenta[a]phenanthren-3-one and/or (8S,11R,13S,14S,17S)-17-hydroxy-11-[4-((S)-1-hydroxyethyl)phenyl]-1 3-methyl-17-pentafluoroethyl-1,2,6,7,8,11,12,13,14,15,16,17-dodecahydrocyclopenta[a]phenanthren-3-one was determined by HPLC. The test was ended after 24 hours or 192 hours.

[2] = Determination of stability in human plasma; type: in vitro ADME
Description: (§1) A stock solution of 1.0 mg of the substance to be tested in a 9:1 mixture of acetonitrile and dimethyl sulphoxide was prepared. 20 μl of this stock solution were added at 37° C. to 1 ml of human plasma or rat plasma. To determine the content, 100 μl samples were each taken at different times. The enzyme activity was blocked by adding 300 μl of acetonitrile, the samples were centrifuged at 5000 rpm over 10 minutes and, in the supernatant, the content of ester and hydrolysis products (8S,11R,13S,14S,17S)-17-hydroxy-11-[4-((R)-1-hydroxyethyl)phenyl]-1 3-methyl-17-pentafluoroethyl-1,2,6,7,8,11,12,13,14,15,16,17-dodecahydrocyclopenta[a]phenanthren-3-one and/or (8S,11R,13S,14S,17S)-17-hydroxy-11-[4-((S)-1-hydroxyethyl)phenyl]-13-methyl-17-pentafluoroethyl-1,2,6,7,8,11,12,13,14,15,16,17-dodecahydrocyclopenta[a]phenanthrene-3-one was determined by HPLC. The concentration-time curves were used to calculate the degradation kinetics. The stability of the substance tested was reported as the half-life.

[3] = Determination of stability in rat plasma; type: in vitro ADME; settings: 37° C., read-out: Stability t1/2 in rat plasma (converted)
Description: as §1

[4] = target: T1, human progesterone receptor A (Homo sapiens, UniProt P06401); test: Progesterone receptor transactivation test in stably transfected SK-N-MC cells (PR-A, MMTV-LUC reporter); type: cell-based; settings: 0.1 nmol/l promegestone, 24 hours, read-out: PR-A IC50 (antagonistic potency)
T1 construct: expressed in transfected cells; host or cells: SK-N-MC human neuroblastoma cells, stably transfected with pRChPR-A-neo and pMMTV-LUC
T1 sequence (P06401 1-769 isoform P06401-2): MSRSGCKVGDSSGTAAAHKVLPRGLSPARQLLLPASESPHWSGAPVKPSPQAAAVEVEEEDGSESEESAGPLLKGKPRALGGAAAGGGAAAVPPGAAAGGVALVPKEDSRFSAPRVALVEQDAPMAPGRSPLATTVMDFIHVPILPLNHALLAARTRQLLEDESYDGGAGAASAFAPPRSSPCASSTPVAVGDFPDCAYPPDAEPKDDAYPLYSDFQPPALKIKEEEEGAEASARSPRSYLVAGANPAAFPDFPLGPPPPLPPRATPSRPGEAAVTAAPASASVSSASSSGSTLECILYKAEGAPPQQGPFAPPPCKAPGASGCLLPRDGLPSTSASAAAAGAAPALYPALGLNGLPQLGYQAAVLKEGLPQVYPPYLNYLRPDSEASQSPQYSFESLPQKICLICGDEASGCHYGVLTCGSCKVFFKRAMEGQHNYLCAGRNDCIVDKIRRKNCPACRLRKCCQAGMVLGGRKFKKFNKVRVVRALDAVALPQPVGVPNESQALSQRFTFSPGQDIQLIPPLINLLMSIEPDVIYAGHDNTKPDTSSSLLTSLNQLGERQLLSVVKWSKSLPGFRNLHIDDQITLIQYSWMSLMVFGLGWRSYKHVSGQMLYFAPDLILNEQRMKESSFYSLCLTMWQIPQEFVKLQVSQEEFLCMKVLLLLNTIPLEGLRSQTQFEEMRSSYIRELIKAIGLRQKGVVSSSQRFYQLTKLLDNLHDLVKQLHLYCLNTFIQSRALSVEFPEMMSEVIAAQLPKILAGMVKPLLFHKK
Description: (§2) Progesterone receptor-antagonistic action in stable transfectants of human neuroblastoma cells (SK-N-MC cells) with the human progesterone A or progesterone B receptor and an MN-LUC reporter construct SK-N-MC cells (human neuroblastoma cells) which have been stably transfected with plasmids expressing the human progesterone receptor B (pRChPR-B-neo) or the human progesterone receptor A (pRChPR-A-neo) and a reporter construct (pMMTV-LUC) were incubated for 24 hours either in the absence (negative control) or in the presence of ascending amounts of the particular test compound (0.01 nmol/l, 0.1 nmol/l, 1 […], 100 nmol/l and […]), in order to determine the agonistic efficacy. As a positive control of the reporter gene induction, the cells were treated with the synthetic gestagen promegestone (0.01 nmol/l, 0.1 nmol/l, 1 nmol/l, 10 nmol/l, 100 nmol/l and […]). To determine the antagonistic activity, the cells were treated with 0.1 nmol/l promegestone and additionally with ascending amounts of the particular test compound (0.01 nmol/l, 0.1 nmol/l, 1 nmol/l, 10 nmol/l, 100 nmol/l and […]). The activity of the reporter gene LUC (LUC=luciferase) was determined in the cell lysates and measured as RLU (relative light units). All measurements are reported as % efficacy and as EC50 and IC50 concentrations.

[5] = target: T2, human progesterone receptor B (Homo sapiens, UniProt P06401); test: Progesterone receptor transactivation test in stably transfected SK-N-MC cells (PR-B, MMTV-LUC reporter); type: cell-based; settings: 0.1 nmol/l promegestone, 24 hours, read-out: PR-B IC50 (antagonistic potency)
T2 construct: expressed in transfected cells; host or cells: SK-N-MC human neuroblastoma cells, stably transfected with pRChPR-B-neo and pMMTV-LUC
T2 sequence (P06401 1-933): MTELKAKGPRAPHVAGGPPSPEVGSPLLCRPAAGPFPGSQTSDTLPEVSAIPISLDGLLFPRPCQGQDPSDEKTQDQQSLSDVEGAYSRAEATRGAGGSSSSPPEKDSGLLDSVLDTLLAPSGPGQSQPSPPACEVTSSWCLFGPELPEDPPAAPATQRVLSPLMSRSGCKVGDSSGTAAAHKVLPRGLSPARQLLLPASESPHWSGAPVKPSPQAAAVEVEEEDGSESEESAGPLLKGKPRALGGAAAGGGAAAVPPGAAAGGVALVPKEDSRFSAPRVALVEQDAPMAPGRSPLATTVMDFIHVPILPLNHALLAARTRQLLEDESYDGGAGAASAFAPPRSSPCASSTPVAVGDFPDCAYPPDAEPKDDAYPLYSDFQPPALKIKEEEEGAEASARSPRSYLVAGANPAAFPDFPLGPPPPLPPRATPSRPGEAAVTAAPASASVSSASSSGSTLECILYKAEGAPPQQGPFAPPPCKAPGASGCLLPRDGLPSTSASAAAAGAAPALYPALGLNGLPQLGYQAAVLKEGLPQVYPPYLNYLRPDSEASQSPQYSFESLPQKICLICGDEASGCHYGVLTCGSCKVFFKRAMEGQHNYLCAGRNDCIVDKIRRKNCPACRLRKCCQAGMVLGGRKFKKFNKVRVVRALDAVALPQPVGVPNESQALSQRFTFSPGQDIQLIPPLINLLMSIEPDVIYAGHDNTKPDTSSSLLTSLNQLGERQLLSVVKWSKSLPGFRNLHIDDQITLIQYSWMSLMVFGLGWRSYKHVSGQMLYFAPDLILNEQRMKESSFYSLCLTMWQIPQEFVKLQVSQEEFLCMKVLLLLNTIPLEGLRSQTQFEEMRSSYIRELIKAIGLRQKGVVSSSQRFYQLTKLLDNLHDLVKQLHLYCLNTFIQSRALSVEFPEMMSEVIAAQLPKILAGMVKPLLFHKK
Description: as §2

half-life ([1]; pH = 1.2, 23° C.): > 192 h | half-life ([1]; pH = 8.0, 23° C.): > 192 h | half-life ([2]; 37° C., read-out: Stability t1/2 in human plasma (converted)): > 1000 h | half-life ([2]; method of working example 19, summary statement in description, read-out: half-life in human plasma): > 100 h | half-life [3]: 33.2 h | pIC50 [4]: 9.96 | pIC50 [5]: 9.15
SMILES: C=CCOC(=O)N[C@H](C(=O)OC(C)c1ccc([C@H]2C[C@@]3(C)C(CC[C@@]3(O)C(F)(F)C(F)(F)F)C3CCC4=CC(=O)CCC4=C32)cc1)C(C)C (mixture of isomers) [Example 16, (S)-2-Allyloxycarbonylamino-3-methylbutyric acid (RS)-1-[4-((8S,11R,13S,14S,17S)-17-hydroxy-1 3-methyl-3-oxo-1 7-pentafluoroethyl-2,3,6,7,8,11,12,13,14,15,16,17-dodecahydro-1H-cyclopenta[a]phenanthren-11-yl)phenyl]ethyl ester]

Reference: patent US9096639B2, “17-hydroxy-17-pentafluorethyl-estra-4,9(10)-dien-11-acyloxyalkylene phenyl derivatives, methods for the production thereof and use thereof for treating diseases” (Bayer Intellectual Property GmbH, priority 2009, dated 2015)
